In article PMC4728505 (Marine Drugs, 2015):
*1 amine or outer side, *2 acyl side, *3 side chain or, on linkers, in order; H or OH if unused. Where a SMILES comes first, the peptide text is derived from it. Bridges are numbered along the chain shown (N, C = ends). [ ]: non-standard residue; d: D form. NMehTyr = CN[C@@H](CCc1ccc(O)cc1)C(=O)O; hTyr = N[C@@H](CCc1ccc(O)cc1)C(=O)O; NMeA = CN[C@@H](C)C(=O)O; CO = O=C([*:1])[*:2]

Key:
[1] = test system: PP1 (from rabbit skeletal muscle); conditions: cited from earlier work; for PP1 inhibition reported (in words): PP1 from rabbit skeletal muscle
protein phosphatase 1 = molecular target: T1, protein phosphatase 1 (Oryctolagus cuniculus, UniProt P62139); assay: biochemical; type: biochemical; conditions: for PP1 inhibition (in words): acquired standards
T1 construct: purchased New England Biolabs
T1 sequence (P62139 whole entry): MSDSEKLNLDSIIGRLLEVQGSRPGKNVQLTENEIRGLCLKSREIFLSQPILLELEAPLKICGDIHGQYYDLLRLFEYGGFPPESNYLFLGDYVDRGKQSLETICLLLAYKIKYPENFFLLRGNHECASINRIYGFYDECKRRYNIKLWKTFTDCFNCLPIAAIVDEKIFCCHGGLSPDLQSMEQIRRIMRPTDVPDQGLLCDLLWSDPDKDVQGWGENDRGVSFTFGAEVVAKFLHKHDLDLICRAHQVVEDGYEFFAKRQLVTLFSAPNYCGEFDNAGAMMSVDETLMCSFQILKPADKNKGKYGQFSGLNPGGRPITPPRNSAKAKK

carboxypeptidase A [2] = molecular target: T2, carboxypeptidase A (Bos taurus, UniProt P00730); assay: Carboxypeptidase A inhibition assay; type: biochemical; conditions: acquired standards
T2 construct: purchased Sigma-Aldrich C9268
T2 sequence (P00730 111-419): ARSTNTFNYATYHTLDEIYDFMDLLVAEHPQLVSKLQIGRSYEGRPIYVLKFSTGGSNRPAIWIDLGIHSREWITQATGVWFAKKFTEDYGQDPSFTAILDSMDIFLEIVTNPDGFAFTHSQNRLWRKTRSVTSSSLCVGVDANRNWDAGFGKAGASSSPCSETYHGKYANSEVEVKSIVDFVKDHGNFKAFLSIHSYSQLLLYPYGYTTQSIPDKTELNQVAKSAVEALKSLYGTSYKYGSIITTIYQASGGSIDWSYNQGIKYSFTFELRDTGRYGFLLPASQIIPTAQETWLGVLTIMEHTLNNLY
Description: The following reagents used for enzymatic assays were purchased from Sigma-Aldrich: trypsin (product number T0303), thrombin bovine plasma (T4648), elastase (E0258), carboxypeptidase A (C9268), aprotinine (A6103), N-p-tosyl-Gly-Pro-Lys-p-nitroanilide acetate salt (T6140), N-Succinyl-Gly-Gly-Phe-p-nitroanilide (S1899), 4-(2-Aminoethyl) benzenesulfonyl fluoride hydrochloride—AEBSF (A8456), elastatinal (E0881), N-Succinyl-Ala-Ala-Ala-p-nitroanilide (S4760), carboxypeptidase inhibitor—CPI (C0297), p-nitrophenyl phosphate disodium salt hexahydrate—p-NPP (71768), albumin bovine—BSA (A4503) and DL-dithiothreitol DTT (D0632).
APs were assayed for bioactivity by protein phosphatase 1, carboxypeptidase A, trypsin, elastase and thrombin inhibition assays as described in Mazur-Marzec et al. 2015 [50].

carboxypeptidase A [3] = molecular target: T2, carboxypeptidase A; set-up: method as in PMID 11000037; conditions: read-out: CPA IC50 (converted); cited from earlier work

SMILES | PP1 inhibition reported (in words) [1] | PP1 inhibition (in words) (protein phosphatase 1) | also measured
CC(C)C1NC(=O)C(NC(=O)NC(Cc2ccc(O)cc2)C(=O)O)CCCCNC(=O)C(Cc2ccccc2)NC(=O)C(C)N(C)C(=O)C(CCc2ccc(O)cc2)NC1=O (stereo not drawn) [Anabaenopeptin A, Tyr + CO[Lys + Val + Hty + MeAla + Phe]] | inhibition | showed inhibition | –
CC(C)[C@@H]1NC(=O)[C@H](NC(=O)N[C@@H](CCCNC(=N)N)C(=O)O)CCCCNC(=O)[C@H](Cc2ccccc2)NC(=O)[C@H](C)N(C)C(=O)[C@H](CCc2ccc(O)cc2)NC1=O [Anabaenopeptin B] ({Arg-CO}-[dK]V[hTyr][NMeA]F; lactam 1-C) | inhibition | showed inhibition | –
CC[C@H](C)[C@H](NC(=O)N[C@@H]1CCCCNC(=O)[C@H](Cc2ccccc2)NC(=O)[C@H](C)N(C)C(=O)[C@H](CCc2ccc(O)cc2)NC(=O)[C@H](C(C)C)NC1=O)C(=O)O [Anabaenopeptin J] ({Ile-CO}-[dK]V[hTyr][NMeA]F; lactam 1-C) | – | showed inhibition | Activity against CPA (in words) (carboxypeptidase A [2]): active
CC[C@H](C)[C@@H]1NC(=O)[C@H](NC(=O)N[C@@H](CCCNC(=N)N)C(=O)O)CCCCNC(=O)[C@H](Cc2ccccc2)NC(=O)[C@H](CCc2ccc(O)cc2)N(C)C(=O)[C@H](CCc2ccc(O)cc2)NC1=O [Osc C] ({Arg-CO}-[dK]I[hTyr][NMehTyr]F; lactam 1-C) | inhibition | – | IC50 [1]: 900 nM
CC[C@H](C)[C@@H]1NC(=O)[C@H](NC(=O)N[C@@H](Cc2ccc(O)cc2)C(=O)O)CCCCNC(=O)[C@H](Cc2ccccc2)NC(=O)[C@H](C)N(C)C(=O)[C@H](CCc2ccc(O)cc2)NC1=O [Oscillamide Y, Tyr + CO[Lys + Ile + Hty + MeAla + Phe]] ({Tyr-CO}-[dK]I[hTyr][NMeA]F; lactam 1-C) | – | showed inhibition | Activity against CPA (in words) (carboxypeptidase A [2]): active; PP1 inhibition (in words) ([1]; at 100 μg/mL): no effect; IC50 (protein phosphatase 1): 72.3 nM
CC[C@H](C)[C@@H]1NC(=O)[C@H](NC(=O)N[C@@H](CCCNC(=N)N)C(=O)O)CCCCNC(=O)[C@H](Cc2ccccc2)NC(=O)[C@H](C)N(C)C(=O)[C@H](CCc2ccc(O)cc2)NC1=O [anabaenopeptin F] ({Arg-CO}-[dK]I[hTyr][NMeA]F; lactam 1-C) | inhibition | – | –
CC[C@H](C)[C@@H]1NC(=O)[C@H](NC(=O)N[C@@H](CCCNC(=N)N)C(=O)O)CCCCNC(=O)[C@H]([C@@H](C)CC)NC(=O)[C@H](CCc2ccc(O)cc2)N(C)C(=O)[C@H](CCc2ccc(O)cc2)NC1=O [anabaenopeptin H] ({Arg-CO}-[dK]I[hTyr][NMehTyr]I; lactam 1-C) | – | – | IC50 (carboxypeptidase A [3]): 3680 nM
CSCC[C@@H]1NC(=O)[C@H](NC(=O)N[C@@H](CCCNC(=N)N)C(=O)O)CCCCNC(=O)[C@H](Cc2ccccc2)NC(=O)[C@H](C)N(C)C(=O)[C@H](CCc2ccc(O)cc2)NC1=O [oscillamide B] ({Arg-CO}-[dK]M[hTyr][NMeA]F; lactam 1-C) | inhibition | – | –
